The text below walks through data of EPA's CvTdb concentration-time database.

Series [1] relates to Rat. Description: concentration in plasma after dosing. As to conditions: 0.5 h; dosed: Wyeth-14643; 5.0 mg/kg; oral; Male; Sprague-Dawley.
Series [2] relates to Rat. Description: concentration in plasma after dosing. To be noted: 5 min; dosed: Wyeth-14643; 2.0 mg/kg; iv; Male; Sprague-Dawley.
The subject of series [3] is Rat. Description: concentration in plasma after dosing. To be noted: dosed: Wyeth-14643, 2.0 mg/kg, oral, Male, Sprague-Dawley.
The test system of series [4] is Rat. Description: concentration in thymus after dosing. To be noted: 6 h; dosed: Bis 2-Chloroethoxy Methane; 20 mg/kg; iv; Female; F344.
The test system of series [5] is Rat. Description: concentration in plasma after dosing. As to conditions: 20 min; dosed: Bis 2-Chloroethoxy Methane; 20 mg/kg; iv; Female; F344.
The test system of series [6] is Rat. Description: concentration in liver after dosing. To be noted: 10 min; dosed: Bis 2-Chloroethoxy Methane; 20 mg/kg; iv; Female; F344.
For series [7], the system named is Rat. Description: concentration in heart after dosing. As to conditions: 1 h; dosed: Bis 2-Chloroethoxy Methane; 20 mg/kg; iv; Female; F344.
In series [8] the test system is Rat. The series is described as follows: concentration in heart after dosing. To be noted: 40 min; dosed: Bis 2-Chloroethoxy Methane; 20 mg/kg; iv; Male; F344.
The test system of series [9] is Rat. The series is described as follows: concentration in thymus after dosing. As to conditions: 1 h; dosed: Bis 2-Chloroethoxy Methane; 20 mg/kg; iv; Male; F344.
The subject of series [10] is Rat. The series is described as follows: concentration in liver after dosing. As to conditions: 6 h; dosed: Fluorotelomer alcohol 8+2; 80 mg/kg; oral; Female; Harlan Sprague Dawley.
Series [11] has as its system Rat. Description: concentration in plasma after dosing. As to conditions: dosed: Fluorotelomer alcohol 8+2, 12 mg/kg, oral, Male, Harlan Sprague Dawley.
In series [12] the test system is Rat. Description: concentration in brain after dosing. As to conditions: 0.5 h; dosed: Fluorotelomer alcohol 8+2; 80 mg/kg; oral; Female; Harlan Sprague Dawley.
The subject of series [13] is Rat. Description: concentration in liver after dosing. As to conditions: 3 h; dosed: Fluorotelomer alcohol 8+2; 24 mg/kg; oral; Male; Harlan Sprague Dawley.
Series [14] deals with Rat. The series is described as follows: concentration in plasma after dosing. To be noted: dosed: Fluorotelomer alcohol 8+2, 12 mg/kg, oral, Male, Harlan Sprague Dawley. The source holds these as a separate data set.
The test system of series [15] is Rat. The series is described as follows: concentration in liver after dosing. As to conditions: 12 h; dosed: Fluorotelomer alcohol 8+2; 24 mg/kg; oral; Male; Harlan Sprague Dawley.
For series [16], the system named is Rat. The series is described as follows: concentration in plasma after dosing. To be noted: dosed: Fluorotelomer alcohol 8+2, 40 mg/kg, iv, Male, F344.
In series [17] the test system is Rat. The series is described as follows: concentration in plasma after dosing. To be noted: dosed: Fluorotelomer alcohol 8+2, 12 mg/kg, oral, Male, Harlan Sprague Dawley. The source holds these as a separate data set.
The test system of series [18] is Rat. Description: concentration in plasma after dosing. To be noted: 5 h; dosed: Di-n-butyl phthalate; 20 mg/kg; iv; Male; Sprague-Dawley.
In series [19] the test system is Rat. The series is described as follows: concentration in plasma after dosing. To be noted: 10 h; dosed: Di-n-butyl phthalate; 50 mg/kg; oral; Male; Sprague-Dawley.
The test system of series [20] is Rat. Description: concentration in plasma after dosing. As to conditions: 20 h; dosed: Di-n-butyl phthalate; 100 mg/kg; oral; Male; Sprague-Dawley.
Series [21] concerns Rat. The series is described as follows: concentration in kidney after dosing. To be noted: 3360 h; dosed: Perfluorodecanoic acid; 10 mg/kg; oral; Male; Harlan Sprague Dawley.
For series [22], the system named is Rat. Description: concentration in kidney after dosing. To be noted: 1 h; dosed: Perfluorodecanoic acid; 10 mg/kg; oral; Male; Harlan Sprague Dawley.
In series [23] the test system is Rat. The series is described as follows: concentration in plasma after dosing. As to conditions: dosed: Perfluorodecanoic acid, 2 mg/kg, iv, Male, F344.
The test system of series [24] is Rat. Description: concentration in liver after dosing. To be noted: 864 h; dosed: Perfluorodecanoic acid; 10 mg/kg; oral; Female; Harlan Sprague Dawley.
In series [25] the test system is Rat. Description: concentration in brain after dosing. To be noted: 1848 h; dosed: Perfluorodecanoic acid; 10 mg/kg; oral; Female; Harlan Sprague Dawley.
Series [26] concerns Rat. Description: concentration in plasma after dosing. As to conditions: dosed: Perfluorodecanoic acid, 2 mg/kg, iv, Male, F344. This is another data set of the same source.
In series [27] the test system is Rat. The series is described as follows: concentration in liver after dosing. As to conditions: 1848 h; dosed: Perfluorodecanoic acid; 10 mg/kg; oral; Female; Harlan Sprague Dawley.
Series [28] concerns Rat. The series is described as follows: concentration in plasma after dosing. To be noted: 12 h; dosed: Primidone; 80 mg/kg; oral; Female; Harlan Sprague-Dawley.
Series [29] deals with Rat. The series is described as follows: concentration in plasma after dosing. To be noted: 6 h; dosed: Primidone; 30 mg/kg; oral; Male; F344.
Series [30] concerns Rat. The series is described as follows: concentration in plasma after dosing. To be noted: 0.5 h; dosed: Primidone; 30 mg/kg; oral; Male; F344.
The test system of series [31] is Rat. The series is described as follows: concentration in liver after dosing. To be noted: 3 h; dosed: Thiodiglycolic Acid; 20 mg/kg; iv; Female; Harlan Sprague Dawley.
Series [32] relates to Rat. The series is described as follows: concentration in heart after dosing. As to conditions: 20 min; dosed: Thiodiglycolic Acid; 20 mg/kg; iv; Female; F344.
In series [33] the test system is Rat. Description: concentration in heart after dosing. To be noted: 2 h; dosed: Thiodiglycolic Acid; 20 mg/kg; iv; Male; Harlan Sprague Dawley.
In series [34] the test system is Rat. Description: concentration in plasma after dosing. As to conditions: 20 min; dosed: Thiodiglycolic Acid; 20 mg/kg; iv; Female; F344.
In series [35] the test system is Rat. The series is described as follows: concentration in plasma after dosing. To be noted: 1 h; dosed: Thiodiglycolic Acid; 20 mg/kg; iv; Male; Harlan Sprague Dawley.
The subject of series [36] is Rat. The series is described as follows: concentration in plasma after dosing. As to conditions: 2 h; dosed: dichloroacetic acid; 60 mg/kg; iv; Female; Harlan Sprague-Dawley.
Series [37] deals with Rat. Description: concentration in plasma after dosing. As to conditions: 40 min; dosed: dichloroacetic acid; 100 mg/kg; oral; Male; F344.
For series [38], the system named is Rat. The series is described as follows: concentration in plasma after dosing. As to conditions: dosed: dichloroacetic acid, 100 mg/kg, oral, Male, F344.

Each structure is given as a SMILES string.

`Cc1cccc(Nc2cc(Cl)nc(SCC(=O)O)n2)c1C`: the concentration in plasma is 3830 ng/mL in series [1], 7290 ng/mL in [2], 656 ng/mL in series [3] (2 h) and 120 ng/mL in series [3] (7 h).
For the compound `ClCCOCOCCCl` [Bis 2-Chloroethoxy Methane], the concentration in thymus in series [4] was determined as 32.1 ng/g; in series [9], 7380 ng/g. In series [5], this compound returned a concentration in plasma of 3810 ng/mL. The compound further returned a concentration in liver in series [6] of 973 ng/g. For the same compound, the concentration in heart in series [7] was determined as 1380 ng/g; in series [8] it was 6920 ng/g.
As for `OCCC(F)(F)C(F)(F)C(F)(F)C(F)(F)C(F)(F)C(F)(F)C(F)(F)C(F)(F)F` [Fluorotelomer alcohol 8+2], the concentration in liver was found to be 2020 ng/g in [10], 2220 ng/g in [13] and 719 ng/g in series [15]. The concentration in plasma in series [11] (1 h) amounted to 329 ng/mL; in series [11] (24 h) it was 0.982 ng/mL; in series [14] (5 min), 2.04 ng/mL; in series [14] (3 h) it was 147 ng/mL; in series [16] (0.25 h), 12700 ng/mL; in [16] (6 h) it was 153 ng/mL. For the same compound, the figures for the concentration in plasma in series [17] (1 h) and in [17] (24 h) were 255 ng/mL and 3.4 ng/mL, respectively. The concentration in brain in series [12] is 2670 ng/g.
Consider `CCCCOC(=O)c1ccccc1C(=O)O` [Mono-n-butyl phthalate], for which the concentration in plasma in series [18] was 600 ng/mL; in series [19], 1170 ng/mL; in series [20] it was 414 ng/mL.
Regarding `O=C(O)C(F)(F)C(F)(F)C(F)(F)C(F)(F)C(F)(F)C(F)(F)C(F)(F)C(F)(F)C(F)(F)F` [Perfluorodecanoic acid], the concentration in kidney in [21] worked out at 866 ng/g; in series [22], 10800 ng/g. Besides, the concentration in plasma in series [23] (1 h) amounted to 6520 ng/mL; in series [23] (528 h), 4120 ng/mL; in series [23] (3360 h), 71.5 ng/mL; in series [26] (1 h) it was 5930 ng/mL; in series [26] (528 h), 2060 ng/mL; in [26] (3360 h), 272 ng/mL. The concentration in liver in series [24] was 43600 ng/g; in series [27], 26000 ng/g. The compound also registered a concentration in brain in [25] of 752 ng/g.
Take `CCC1(c2ccccc2)C(=O)NC(=O)NC1=O` [Phenobarbital]: the concentration in plasma in [28] was found to be 5830 ng/mL; in series [29], 3110 ng/mL; in series [30] it was 330 ng/mL.
Compound `O=C(O)CSCC(=O)O` [Thiodiglycolic Acid] came in with a concentration in liver in [31] of 3470 ng/g. In addition, the concentration in heart was 3820 ng/g in series [32] and 1440 ng/g in [33]. The concentration in plasma in series [34] was 9230 ng/mL; in series [35], 1580 ng/mL.
For the compound `O=C(O)C(Cl)Cl` [dichloroacetic acid], the concentration in plasma is 1170 ng/mL in [36], 39400 ng/mL in series [37], 7120 ng/mL in [38] (5 min) and 41300 ng/mL in [38] (2 h).
